± gives the standard deviation of the averaged measurements.
Legend:
[1] = compound: CC(=O)NCC(=O)N1[C@@H]2CC[C@H]1c1ccc(Nc3ncc(C(F)(F)F)c(NC4CCC4)n3)cc12; assay: surviving fraction relative to DMSO-only wells; higher = less growth inhibition; details: exposure time: 5 days
Procedure, shortened: (§1)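 At 250–500 cells per well in 384-well plates, log-phase tumour cell lines were seeded and, 24 hours on, exposed continuously for five days to inhibitors at 0.5, 1, 5, 10, 50, 100, 500 and 1000 nM. Viability readout was CellTiter-Glo luminescence, reported as surviving fraction normalised to the median of DMSO-only wells.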

[2] = compound: T1, CC(=O)O[C@H]1C(=O)[C@@]2(C)[C@H]([C@H](OC(=O)c3ccccc3)[C@]3(O)C[C@H](OC(=O)[C@H](O)[C@@H](NC(=O)c4ccccc4)c4ccccc4)C(C)=C1C3(C)C)[C@]1(OC(C)=O)CO[C@@H]1C[C@@H]2O [PACLITAXEL]; assay: as above; details: exposure time: 5 days
Procedure, shortened: as §1

[3] = compound: CC(=O)c1c(C)c2cnc(Nc3ccc(N4CCNCC4)cn3)nc2n(C2CCCC2)c1=O; assay: as above; details: exposure time: 5 days
Procedure, shortened: as §1

[4] = compound: T2, CC[C@@]1(O)C(=O)OCc2c1cc1n(c2=O)Cc2cc3ccccc3nc2-1 [CAMPTOTHECIN]; assay: as above; details: exposure time: 5 days
Procedure, shortened: as §1

[5] = compound: T3, COCC[n+]1c2c(n(Cc3cnccn3)c1C)C(=O)c1ccccc1C2=O [YM155]; assay: as above; details: exposure time: 5 days
Procedure, shortened: as §1

[6] = compound: T4, COc1cc2ncnc(Nc3ccc(F)c(Cl)c3)c2cc1OCCCN1CCOCC1 [GEFITINIB]; assay: as above; details: exposure time: 5 days
Procedure, shortened: as §1

[7] = compound: T5, C[C@]1(O)C[C@@H](c2nc(-c3ccc4ccc(-c5ccccc5)nc4c3)c3c(N)nccn32)C1 [OSI-906]; assay: as above; details: exposure time: 5 days
Procedure, shortened: as §1

[8] = compound: T6, Cc1ccc(-c2cc(C(F)(F)F)nn2-c2ccc(S(N)(=O)=O)cc2)cc1 [CELECOXIB]; assay: as above; details: exposure time: 5 days
Procedure, shortened: as §1

[9] = compound: T7, O=C(O)C1(C(=O)O)CCC1.[NH2-].[NH2-].[Pt+2] [CARBOPLATIN]; assay: as above; details: exposure time: 5 days
Procedure, shortened: as §1

[10] = compound: CC(=O)NCC(=O)N1[C@@H]2CC[C@H]1c1ccc(Nc3ncc(C(F)(F)F)c(NC4CCC4)n3)cc12; assay: area under dose-response curve of surviving fraction (unscaled, Aref=0) (surviving fraction x log10(nM)); higher = more resistant; details: exposure time: 5 days; dose range 0.5-1000 nM
Procedure, shortened: (§2)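 Tumour cell lines in 384-well plates were exposed to eight inhibitor concentrations, from 0.5 to 1000 nM, for five days, and viability was read by CellTiter-Glo luminescence in three screens per line. Signals were normalised to DMSO-only wells, and 3-parameter logistic regression in the drc R package fitted dose-response survival curves to the surviving fractions. Area under the curve is given as the unscaled activity area. That area is taken over log10 dose with Aref = 0.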

[11] = compound: T1, PACLITAXEL; assay: as above; details: exposure time: 5 days; dose range 0.5-1000 nM
Procedure, shortened: as §2

[12] = compound: CC(=O)c1c(C)c2cnc(Nc3ccc(N4CCNCC4)cn3)nc2n(C2CCCC2)c1=O; assay: as above; details: exposure time: 5 days; dose range 0.5-1000 nM
Procedure, shortened: as §2

[13] = compound: T2, CAMPTOTHECIN; assay: as above; details: exposure time: 5 days; dose range 0.5-1000 nM
Procedure, shortened: as §2

[14] = compound: T3, YM155; assay: as above; details: exposure time: 5 days; dose range 0.5-1000 nM
Procedure, shortened: as §2

[15] = compound: T4, GEFITINIB; assay: as above; details: exposure time: 5 days; dose range 0.5-1000 nM
Procedure, shortened: as §2

[16] = compound: T5, OSI-906; assay: as above; details: exposure time: 5 days; dose range 0.5-1000 nM
Procedure, shortened: as §2

[17] = compound: T6, CELECOXIB; assay: as above; details: exposure time: 5 days; dose range 0.5-1000 nM
Procedure, shortened: as §2

[18] = compound: T7, CARBOPLATIN; assay: as above; details: exposure time: 5 days; dose range 0.5-1000 nM
Procedure, shortened: as §2

Q: What does the source list for HU09 BONE?
A: surviving fraction ([1]; 0.5 nM): 1.05 ± 0.082; surviving fraction ([1]; 1 nM): 1.01 ± 0.03; surviving fraction ([1]; 5 nM): 1.08 ± 0.075; surviving fraction ([1]; 10 nM): 1.11 ± 0.078; surviving fraction ([1]; 50 nM): 0.67 ± 0.024; surviving fraction ([1]; 100 nM): 0.583 ± 0.011; surviving fraction ([1]; 500 nM): 0.3 ± 0.0061; surviving fraction ([1]; 1000 nM): 0.179 ± 0.023; surviving fraction ([2]; 0.5 nM): 0.811 ± 0.11; surviving fraction ([2]; 1 nM): 0.45 ± 0.011; surviving fraction ([2]; 5 nM): 0.0977 ± 0.0081; surviving fraction ([2]; 10 nM): 0.0603 ± 0.0055; surviving fraction ([2]; 50 nM): 0.0367 ± 0.0029; surviving fraction ([2]; 100 nM): 0.0263 ± 0.0042; surviving fraction ([2]; 500 nM): 0.0247 ± 0.0015; surviving fraction ([2]; 1000 nM): 0.0247 ± 0.0042; surviving fraction ([3]; 0.5 nM): 0.993 ± 0.16; surviving fraction ([3]; 1 nM): 0.91 ± 0.051; surviving fraction ([3]; 5 nM): 1.08 ± 0.022; surviving fraction ([3]; 10 nM): 1.05 ± 0.11; surviving fraction ([3]; 50 nM): 1.04 ± 0.15; surviving fraction ([3]; 100 nM): 1.19 ± 0.049; surviving fraction ([3]; 500 nM): 0.984 ± 0.17; surviving fraction ([3]; 1000 nM): 1.04 ± 0.059; surviving fraction ([4]; 0.5 nM): 0.84 ± 0.015; surviving fraction ([4]; 1 nM): 0.82 ± 0.06; surviving fraction ([4]; 5 nM): 0.311 ± 0.065; surviving fraction ([4]; 10 nM): 0.0673 ± 0.011; surviving fraction ([4]; 50 nM): 0.026 ± 0.0027; surviving fraction ([4]; 100 nM): 0.0207 ± 0.00058; surviving fraction ([4]; 500 nM): 0.0163 ± 0.00058; surviving fraction ([4]; 1000 nM): 0.0203 ± 0.0011; surviving fraction ([5]; 0.5 nM): 0.942 ± 0.072; surviving fraction ([5]; 1 nM): 1.01 ± 0.13; surviving fraction ([5]; 5 nM): 0.925 ± 0.053; surviving fraction ([5]; 10 nM): 0.917 ± 0.11; surviving fraction ([5]; 50 nM): 0.5387 ± 0.004; surviving fraction ([5]; 100 nM): 0.374 ± 0.016; surviving fraction ([5]; 500 nM): 0.161 ± 0.0055; surviving fraction ([5]; 1000 nM): 0.0983 ± 0.0055; surviving fraction ([6]; 0.5 nM): 0.997 ± 0.069; surviving fraction ([6]; 1 nM): 0.921 ± 0.055; surviving fraction ([6]; 5 nM): 0.972 ± 0.023; surviving fraction ([6]; 10 nM): 1.02 ± 0.079; surviving fraction ([6]; 50 nM): 1.1 ± 0.018; surviving fraction ([6]; 100 nM): 1.09 ± 0.075; surviving fraction ([6]; 500 nM): 1.1 ± 0.16; surviving fraction ([6]; 1000 nM): 0.952 ± 0.1; surviving fraction ([7]; 0.5 nM): 0.79 ± 0.071; surviving fraction ([7]; 1 nM): 0.852 ± 0.082; surviving fraction ([7]; 5 nM): 0.956 ± 0.067; surviving fraction ([7]; 10 nM): 0.909 ± 0.043; surviving fraction ([7]; 50 nM): 0.854 ± 0.11; surviving fraction ([7]; 100 nM): 0.785 ± 0.027; surviving fraction ([7]; 500 nM): 0.517 ± 0.087; surviving fraction ([7]; 1000 nM): 0.481 ± 0.04; surviving fraction ([8]; 0.5 nM): 1 ± 0.092; surviving fraction ([8]; 1 nM): 0.961 ± 0.061; surviving fraction ([8]; 5 nM): 1.08 ± 0.027; surviving fraction ([8]; 10 nM): 1.03 ± 0.13; surviving fraction ([8]; 50 nM): 1.04 ± 0.05; surviving fraction ([8]; 500 nM): 0.952 ± 0.18; surviving fraction ([8]; 1000 nM): 0.846 ± 0.02; surviving fraction ([9]; 0.5 nM): 0.977 ± 0.027; surviving fraction ([9]; 1 nM): 0.955 ± 0.056; surviving fraction ([9]; 5 nM): 1.17 ± 0.069; surviving fraction ([9]; 10 nM): 1.09 ± 0.021; surviving fraction ([9]; 50 nM): 1.09 ± 0.046; surviving fraction ([9]; 100 nM): 1.11 ± 0.13; surviving fraction ([9]; 500 nM): 1.09 ± 0.076; surviving fraction ([9]; 1000 nM): 1.07 ± 0.12; area under dose-response curve [10]: 2.44; area under dose-response curve [11]: 0.426; area under dose-response curve [12]: 3.47; area under dose-response curve [13]: 0.747; area under dose-response curve [14]: 2.13; area under dose-response curve [15]: 3.37; area under dose-response curve [16]: 2.66; area under dose-response curve [17]: 3.26; area under dose-response curve [18]: 3.58
